The values that follow come from patent US10683297B2 (Sunshine Lake Pharma Co., Ltd., priority 2017, dated 2020).

For one experiment, the target named is T1, JAK3 (h) (Homo sapiens, UniProt P52333).
T1 construct: purchased Millipore UK Ltd (assays performed there as a service)
T1 sequence (P52333 1-1124): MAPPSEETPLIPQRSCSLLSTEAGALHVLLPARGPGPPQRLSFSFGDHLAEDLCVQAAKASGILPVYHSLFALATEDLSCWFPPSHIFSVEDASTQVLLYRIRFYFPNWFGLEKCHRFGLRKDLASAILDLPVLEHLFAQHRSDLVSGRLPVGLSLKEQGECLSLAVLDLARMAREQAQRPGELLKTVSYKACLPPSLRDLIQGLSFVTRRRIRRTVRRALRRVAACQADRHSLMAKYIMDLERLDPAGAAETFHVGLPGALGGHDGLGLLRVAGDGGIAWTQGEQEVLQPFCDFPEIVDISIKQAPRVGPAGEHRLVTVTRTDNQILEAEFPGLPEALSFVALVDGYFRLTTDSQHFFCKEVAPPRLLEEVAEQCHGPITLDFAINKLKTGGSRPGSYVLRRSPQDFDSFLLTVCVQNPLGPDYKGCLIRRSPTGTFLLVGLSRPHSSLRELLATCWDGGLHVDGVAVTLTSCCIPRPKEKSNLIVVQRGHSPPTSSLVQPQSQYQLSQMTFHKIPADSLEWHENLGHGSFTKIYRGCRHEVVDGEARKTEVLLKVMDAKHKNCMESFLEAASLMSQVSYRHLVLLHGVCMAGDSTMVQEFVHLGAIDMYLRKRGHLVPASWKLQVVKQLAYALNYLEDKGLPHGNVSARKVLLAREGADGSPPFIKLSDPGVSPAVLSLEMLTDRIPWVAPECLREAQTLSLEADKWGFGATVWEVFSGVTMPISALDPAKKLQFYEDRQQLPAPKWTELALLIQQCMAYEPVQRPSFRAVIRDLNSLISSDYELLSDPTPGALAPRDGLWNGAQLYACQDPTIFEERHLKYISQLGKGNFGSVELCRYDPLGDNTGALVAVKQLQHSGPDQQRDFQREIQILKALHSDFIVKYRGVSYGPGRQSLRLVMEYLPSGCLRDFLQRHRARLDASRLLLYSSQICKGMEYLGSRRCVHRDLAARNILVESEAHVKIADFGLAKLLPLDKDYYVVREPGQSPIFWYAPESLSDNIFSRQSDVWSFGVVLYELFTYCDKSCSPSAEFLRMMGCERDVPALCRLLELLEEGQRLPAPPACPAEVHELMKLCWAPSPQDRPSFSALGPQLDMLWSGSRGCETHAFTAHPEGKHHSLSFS
The experiment is described as follows: JAK3 (h) kinase assay. The format is biochemical. The note with it: [γ-33P-ATP] 10 μM or KM values; 40 minutes at room temperature. Here is the method:
Kinase assays can be performed by measurement of incorporation of γ-^33P ATP into immobilized myelin basic protein (MBP). High binding white 384 well plates (Greiner) are coated with MBP (Sigma # M-1891) by incubation of 60 μL well of 20 μg/mL MBP in Tris-buffered saline (TBS; 50 mM Tris pH 8.0, 138 mM NaCl, 2.7 mM KCl) for 24 h at 4° C. Plates are washed 3× with 100 μL TBS. Kinase reactions are carried out in a total volume of 34 μL in kinase buffer (according to the need to make, for example, 5 mM Hepes pH 7.6, 15 mM NaCl, 0.01% bovine gamma globulin (Sigma #1-5506), 10 mM MgCl2, 1 mM DTT, 0.02% TritonX-100). Compound dilutions are performed in DMSO and added to assay wells to a final DMSO concentration of 1%. Each data point is measured in duplicate, and at least two duplicate assays are performed for each individual compound determination. Enzyme is added to final concentrations of 10 nM or 20 nM, for example. A mixture of unlabeled ATP and γ-^33P ATP is added to start the reaction (2×10^6 cpm of γ-^33P ATP per well (3000 Ci/mmole) and 10 μM unlabeled ATP, typically. The reactions are carried out for 1 hour at room temperature with shaking. Plates are washed 7× with TBS, followed by the addition of 50 μL well scintillation fluid (Wallac). Plates are read using a Wallac Trilux counter. This is only one format of such assays; various other formats are possible, as known to one skilled in the art.
(§1) The above assay procedure can be used to determine the IC50 for inhibition and/or the inhibition constant, Ki. […] The IC50 value is estimated by preparing a 10 point curve using a ½ log dilution series (for example, a typical curve may be prepared using the following compound concentrations: 3 μM, 1 μM, 0.3 μM, 0.1 μM, 0.03 μM, 0.01 μM, 0.003 μM, 0.001 μM, 0.0003 μM and 0 μM).
[…] The reaction is initiated by the addition of the MgATP mix. After incubation for 40 minutes at room temperature, the reaction is stopped by the addition of 3% phosphoric acid solution. 10 μL of the reaction is then spotted onto a P30 filtermat and washed three times for 5 minutes in 75 mM phosphoric acid and once in methanol prior to drying and scintillation counting.
(§2) The kinase assays described herein were performed at Millipore UK Ltd, Dundee Technology Park, Dundee DD2 1SW, UK.

A further experiment addresses T2, Aurora-A (h) (Homo sapiens, UniProt O14965).
T2 construct: purchased Millipore UK Ltd (assays performed there as a service)
T2 sequence (O14965 1-403): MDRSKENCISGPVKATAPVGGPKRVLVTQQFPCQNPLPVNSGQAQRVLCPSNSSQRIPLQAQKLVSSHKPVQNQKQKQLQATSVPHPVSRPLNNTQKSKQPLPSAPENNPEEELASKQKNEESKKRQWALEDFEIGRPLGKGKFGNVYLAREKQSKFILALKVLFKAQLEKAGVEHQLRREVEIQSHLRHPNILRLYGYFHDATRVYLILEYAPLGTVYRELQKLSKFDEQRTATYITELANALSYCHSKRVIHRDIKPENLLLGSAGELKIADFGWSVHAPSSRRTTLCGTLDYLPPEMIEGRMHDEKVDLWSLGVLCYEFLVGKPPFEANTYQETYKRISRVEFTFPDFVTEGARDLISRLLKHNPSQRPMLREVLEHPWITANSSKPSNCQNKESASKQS
Put plainly: Aurora-A (h) kinase assay. The note with it: [γ-33P-ATP] 10 μM or KM values; 40 minutes at room temperature. The class given is biochemical. Here is the method: as §1
Aurora-A (h) is incubated with 8 mM MOPS pH 7.0, 0.2 mM EDTA, 200 μM LRRASLG (Kemptide), 10 mM MgAcetate and [γ-^33P-ATP] […] The reaction is initiated by the addition of the MgATP mix. After incubation for 40 minutes at room temperature, the reaction is stopped by the addition of 3% phosphoric acid solution. 10 μL of the reaction is then spotted onto a P30 filtermat and washed three times for 5 minutes in 75 mM phosphoric acid and once in methanol prior to drying and scintillation counting.
as §2

On to `CC(C)(O)Cn1nnc2cc(Nc3ncc(Cl)c(NC4CCN(c5ccc(C#N)cn5)CC4)n3)ccc21` [Example 69, 6-(4-((5-chloro-2-((1-(2-hydroxy-2-methylpropyl)-1H-benzo[d][1,2,3]triazol-5-yl)amino)pyrimidin-4-yl)amino)piperidin-1-yl)nicotinonitrile], for which the IC50 against JAK3 (h) was determined as 5 nM; at Aurora-A (h), 40 nM.

As to `CC(C)(O)Cc1nc2cc(Nc3ncc(Cl)c(NC4CCN(c5ccc(C#N)nn5)CC4)n3)ccn2n1` [Example 77, 6-(4-((5-chloro-2-((2-(2-hydroxy-2-methylpropyl)-[1,2,4]triazolo[1,5-a]pyridin-7-yl)amino)pyrimidin-4-yl)amino)piperidin-1-yl)pyridazine-3-carbonitrile], the IC50 at JAK3 (h) turned out to be 353 nM; at Aurora-A (h), 699 nM.

Regarding `CC(C)(O)Cc1nc2cc(Nc3ncc(Cl)c(NC4CCN(c5ccc(C#N)cn5)CC4)n3)ccn2n1` [Example 78, 6-(4-((5-chloro-2-((2-(2-hydroxy-2-methylpropyl)-[1,2,4]triazolo[1,5-a]pyridin-7-yl)amino)pyrimidin-4-yl)amino)piperidin-1-yl)nicotinonitrile], the IC50 stood at 344 nM at JAK3 (h) and 561 nM on Aurora-A (h).
